The target of one series is HDAC1 (Homo sapiens, UniProt Q13547). Put plainly: HDAC inhibition, HDAC1. The format is biochemical.
In another series the target is HDAC2 (Homo sapiens, UniProt Q92769). Put plainly: HDAC inhibition, HDAC2. The format is biochemical.
For another series, the target named is T1, HDAC6 (Homo sapiens, UniProt Q9UBN7).
T1 sequence (Q9UBN7 1-1215): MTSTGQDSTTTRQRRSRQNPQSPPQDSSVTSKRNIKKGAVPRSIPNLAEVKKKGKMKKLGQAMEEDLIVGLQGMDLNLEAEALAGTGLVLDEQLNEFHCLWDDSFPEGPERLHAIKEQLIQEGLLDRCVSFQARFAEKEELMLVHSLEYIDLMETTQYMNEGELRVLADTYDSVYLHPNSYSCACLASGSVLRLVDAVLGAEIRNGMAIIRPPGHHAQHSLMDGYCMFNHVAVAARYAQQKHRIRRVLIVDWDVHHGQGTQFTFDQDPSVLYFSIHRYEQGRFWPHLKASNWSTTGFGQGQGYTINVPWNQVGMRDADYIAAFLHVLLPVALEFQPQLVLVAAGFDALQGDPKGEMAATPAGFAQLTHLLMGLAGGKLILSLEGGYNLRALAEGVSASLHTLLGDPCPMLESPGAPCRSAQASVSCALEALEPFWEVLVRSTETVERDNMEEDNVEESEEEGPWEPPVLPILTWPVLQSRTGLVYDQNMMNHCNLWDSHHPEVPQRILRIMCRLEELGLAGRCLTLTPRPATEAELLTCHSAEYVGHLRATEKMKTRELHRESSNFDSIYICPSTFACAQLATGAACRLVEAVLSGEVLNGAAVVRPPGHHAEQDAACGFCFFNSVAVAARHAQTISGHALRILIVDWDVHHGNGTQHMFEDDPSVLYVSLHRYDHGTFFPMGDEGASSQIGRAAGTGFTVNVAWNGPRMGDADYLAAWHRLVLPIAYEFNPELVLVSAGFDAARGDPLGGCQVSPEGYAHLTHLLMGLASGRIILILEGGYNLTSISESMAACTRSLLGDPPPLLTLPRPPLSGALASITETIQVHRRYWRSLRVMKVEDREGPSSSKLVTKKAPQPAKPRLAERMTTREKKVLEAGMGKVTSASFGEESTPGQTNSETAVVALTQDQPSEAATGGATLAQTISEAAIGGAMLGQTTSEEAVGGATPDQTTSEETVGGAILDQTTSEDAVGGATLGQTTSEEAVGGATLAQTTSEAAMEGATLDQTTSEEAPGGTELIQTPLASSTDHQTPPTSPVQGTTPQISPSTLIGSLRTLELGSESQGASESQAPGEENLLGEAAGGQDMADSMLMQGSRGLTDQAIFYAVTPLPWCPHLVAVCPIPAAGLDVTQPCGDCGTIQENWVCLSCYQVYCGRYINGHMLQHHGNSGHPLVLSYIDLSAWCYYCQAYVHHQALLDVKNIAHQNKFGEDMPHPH
Put plainly: HDAC inhibition, HDAC6. The format is biochemical.

The next series addresses T2, HDAC8 (Homo sapiens, UniProt Q9BY41).
T2 sequence (Q9BY41 1-377): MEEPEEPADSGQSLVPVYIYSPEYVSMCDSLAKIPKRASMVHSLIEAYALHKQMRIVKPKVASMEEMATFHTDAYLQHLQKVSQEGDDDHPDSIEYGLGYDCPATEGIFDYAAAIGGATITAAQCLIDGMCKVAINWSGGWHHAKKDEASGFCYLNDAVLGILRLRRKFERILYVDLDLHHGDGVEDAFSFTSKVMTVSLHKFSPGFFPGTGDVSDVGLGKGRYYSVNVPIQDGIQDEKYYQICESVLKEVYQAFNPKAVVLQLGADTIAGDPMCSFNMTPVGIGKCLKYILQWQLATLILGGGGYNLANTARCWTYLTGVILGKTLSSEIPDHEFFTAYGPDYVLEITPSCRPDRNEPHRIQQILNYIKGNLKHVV
Put plainly: HDAC inhibition, HDAC8. The class given is biochemical.

The subject of series [1] is acetylated tubulin and histone H4. The series is described as follows: Western blot of on-target effect (HDAC inhibition) in Hep-G2 cells. The format is cell-based. The conditions noted are these: Hep-G2, 1.25 and 2.5 μM, 5 h, Western blot (FIG. 1). Here is the method: SAHA was used as positive control while GAPDH was used to control for protein loading. (1a) Hep-G2 treated with DMSO or 0.1% DMSO solution of SAHA (1.25 μM), STR-V-114 (1.25 μM, 2.5 μM) and STR-V-53 (1.25 μM, 2.5 μM). (1b) Hep-G2 treated with DMSO or 0.1% DMSO solution of SAHA (0.5 μM, 1.25 μM) and STR-I-195 (1.25 μM, 2.5 μM). Cell were treated for 5 h before lysis. Quantifications of gel bands are shown below each gel.

The test system of the next series is Hep-G2 cell line. The series is described as follows: Apoptosis via caspase 3 activation (Western blot) in Hep-G2. The class given is cell-based. To be noted: Hep-G2, 18 h; STR compounds 10 and 20 μM, SAHA 5 μM (FIG. 2). Here is the method: Actin was used to control for protein loading. Cells were treated with DMSO or 0.1% DMSO solution of SAHA (5 μM), STR-V-53 (10 and 20 μM), or STR-I-195 (10 and 20 μM) for 18 h. (a) Cropped gel image showing upregulation on cleaved caspase 3 (clv-caspase 3) relative to the DMSO control. (b) Quantification of relative levels of clv-caspase 3. (Bars show mean plus standard deviation; *P<0.0332; **P<0.0021; ***P<0.0002; ****P<[…]).

In another series the test system is Vero cell line. Put plainly: Apoptosis via caspase 3 activation (Western blot) in Vero. The format is cell-based. To be noted: Vero (non-transformed model), 18 h; STR compounds 10 and 20 μM, SAHA 5 μM (FIG. 3). Here is the method:
Actin was used to control for protein loading. Cells were treated with DMSO or 0.1% DMSO solution of SAHA (5 μM), STR-V-53 (10 and 20 μM), or STR-I-195 (10 and 20 μM) for 18 h. Quantification of gel bands are shown below the gel.

For series [2], the system named is Hep-G2. The series is described as follows: Cell cycle analysis in Hep-G2. The class given is cell-based. The conditions noted are these: Hep-G2, 15 μM, 48 h (FIG. 4). Here is the method:
Hep-G2 was cultured in all) cm petri dish until 80% confluence. The cell was serum starved overnight before drug treatment. Subsequently, cells were treated with 10 mL of 0.1% DMSO medium, 0.1% DMSO solution of SAHA (5 μM) or STR-V-53 (15 μM), respectively for 48 h. (a) The control group of Hep-G2 (1); SAHA (5 μM) treated group (2); and STR-V-53 (15 μM) treated group (3). […] (b) Cell distribution in each stage. (c) Analysis of the percentage cell population in cell cycle stages.

Series [3] concerns Hep-G2. Put plainly: Cytotoxicity with GLUT2 blockage by Phloretin in Hep-G2. The class given is cell-based. The conditions noted are these: Hep-G2 treated with Phloretin 24 h prior to incubation (FIG. 5). The protocol:
Hep-G2 and VERO were treated with Phloretin (Ph) for 24 h prior to incubation with STR-V-53 or SAHA. (a) Hep-G2 treated by STR-V-53 with or without Ph. (b) Hep-G2 treated by SAHA with or without Ph. (c) VERO treated by STR-V-53 with or without Ph. (d) VERO treated with SAHA with or without Ph.

Sequence of HDAC2 (Q92769 whole entry): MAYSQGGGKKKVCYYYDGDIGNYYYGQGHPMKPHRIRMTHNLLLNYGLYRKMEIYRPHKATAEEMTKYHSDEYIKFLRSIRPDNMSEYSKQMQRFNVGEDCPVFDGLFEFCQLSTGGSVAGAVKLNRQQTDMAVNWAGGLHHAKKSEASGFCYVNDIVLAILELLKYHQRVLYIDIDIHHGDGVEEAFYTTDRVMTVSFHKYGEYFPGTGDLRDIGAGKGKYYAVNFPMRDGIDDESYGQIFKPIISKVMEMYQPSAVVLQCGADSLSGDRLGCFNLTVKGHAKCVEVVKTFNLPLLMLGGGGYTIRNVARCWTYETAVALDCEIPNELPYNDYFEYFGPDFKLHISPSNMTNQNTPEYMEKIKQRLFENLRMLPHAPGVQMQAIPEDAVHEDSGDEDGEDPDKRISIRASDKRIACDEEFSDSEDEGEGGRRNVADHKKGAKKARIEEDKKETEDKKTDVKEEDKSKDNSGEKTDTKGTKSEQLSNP
Sequence of HDAC1 (Q13547 whole entry): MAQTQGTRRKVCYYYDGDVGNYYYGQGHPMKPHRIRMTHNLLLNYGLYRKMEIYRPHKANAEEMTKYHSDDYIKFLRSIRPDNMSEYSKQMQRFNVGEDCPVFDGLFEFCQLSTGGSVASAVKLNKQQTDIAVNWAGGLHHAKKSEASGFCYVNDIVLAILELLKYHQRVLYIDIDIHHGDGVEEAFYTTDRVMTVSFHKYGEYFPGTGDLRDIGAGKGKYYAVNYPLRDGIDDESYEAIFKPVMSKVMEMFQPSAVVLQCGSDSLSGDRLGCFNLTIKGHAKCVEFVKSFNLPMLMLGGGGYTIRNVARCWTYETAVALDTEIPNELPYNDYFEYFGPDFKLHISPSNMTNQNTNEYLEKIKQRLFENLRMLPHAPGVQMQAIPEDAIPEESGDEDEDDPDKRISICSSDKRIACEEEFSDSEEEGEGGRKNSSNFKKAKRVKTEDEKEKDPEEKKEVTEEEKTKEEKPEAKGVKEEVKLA

Turning to `O=C(CCCCCCn1cc(-c2ccc(OC3O[C@H](CO)[C@@H](O)[C@H](O)C3O)cc2)nn1)NO` (stereo in doubt) [STR-I-195, N-hydroxy-7-(4-(4-(((2S,3R,4S,5S,6R)-3,4,5-trihydroxy-6-(hydroxymethyl)-tetrahydro-2H-pyran-2-yl)oxy)phenyl)-1H-1,2,3-triazol-1-yl)heptanamide], the IC50 against HDAC1 worked out at 14.6 nM; against HDAC2 it was 29.1 nM; on HDAC6 it was 2.51 nM; against HDAC8 it was 464 nM. Further, the “on-target effect (HDAC inhibition): acetylated tubulin and histone H4 levels” value (“on-target effect (HDAC inhibition)” for short) in series [1] was “upregulation of acetylated tubulin and histone H4”. For the same compound, the “apoptosis via caspase 3 activation (clv-caspase 3)” value (shortened to “apoptosis via caspase 3 activation”) with Hep-G2 cell line is reported as “induced apoptosis”. For the same compound, in the series on Vero cell line, the “apoptosis (clv-caspase 3)” value is recorded as “did not induce apoptosis”.
For the compound `O=C(CCCCCCC(=O)Nc1ccccc1)NO` [SAHA, reference compound], in the series on Hep-G2 cell line, the “apoptosis via caspase 3 activation” value is “induced apoptosis”. The “apoptosis (clv-caspase 3)” value with Vero cell line is “induced apoptosis”.
With `O=C(CCCCCCn1cc(-c2ccc(O[C@H]3O[C@H](CO)[C@@H](O)[C@H](O)[C@H]3O)cc2)nn1)NO` [STR-V-53], the IC50 on HDAC1 is 24.3 nM; at HDAC2, 60.1 nM; at HDAC6, 3.43 nM; at HDAC8, 843 nM. Moreover, the “on-target effect (HDAC inhibition)” value in series [1] was “upregulation of acetylated tubulin and histone H4”. Also, the “apoptosis via caspase 3 activation” value with Hep-G2 cell line is reported as “induced apoptosis”. Besides, the “apoptosis (clv-caspase 3)” value in the series on Vero cell line is “did not induce apoptosis”. In addition, the “effect on cell cycle” value in the series on Hep-G2 [2] was “cell cycle arrest”. Moreover, the “effect of GLUT2 blockage on cytotoxicity” value with Hep-G2 [3] is listed as “attenuates the cytotoxicity”.
Turning to `O=C(CCCCCCn1cc(-c2ccc3cc(O[C@H]4O[C@H](CO)[C@@H](O)[C@H](O)[C@H]4O)ccc3c2)nn1)NO` [STR-V-114, N-hydroxy-7-(4-(6-(((2R,3R,4S,5S,6R)-3,4,5-trihydroxy-6-(hydroxymethyl)-tetrahydro-211-pyran-2-yl)oxy)naphthalen-2-yl)-1H-1,2,3-triazol-1-yl)heptanamide], the IC50 came out at 20.3 nM on HDAC1, 61.5 nM against HDAC2, 4.5 nM at HDAC6 and 2130 nM at HDAC8. Also, the “on-target effect (HDAC inhibition)” value in series [1] was “upregulation of acetylated tubulin and histone H4”.
Consider “(2R,3R,4S,5R,6R)-2-(acetoxymethyl)-6-(4-(1-(7-(((tert-butyldiphenylsilyl)oxy)-amino)-7-oxoheptyl)-1H-1,2,3-triazol-4-yl)phenoxy)tetrahydro-2H-pyran-3,4,5-triyl triacetate [STR-V-167]”, for which the IC50 against HDAC1 came to 31.8 nM; at HDAC2, 66.4 nM; against HDAC6 it was 2.61 nM; against HDAC8 it was 311 nM.
On the same counts, the results for “(2S,3R,4S,6R)-4-(dimethylamino)-2-(4-(1-(7-(hydroxyamino)-7-oxoheptyl)-1H-1,2,3-triazol-4-yl)phenoxy)-6-methyltetrahydro-2H-pyran-3-yl acetate [STR-V-165]” are 10.3 nM, 27.5 nM, 5.22 nM and 806 nM.

The values are drawn from patent US12617813B2, “Glycosylated histone deacetylase inhibitors and methods of making and using the same” (Georgia Tech Research Corporation, priority 2020, dated 2026).
